Blank lines part the entries; values can stand above or below the compound they belong to. Calls of active or inactive are those of the source. No cut-off for these calls is given here.
Columns and labels:
786-0 [1] = assay: Inhibition of RSL3-induced ferroptosis in human 786-0 cells assessed as cell viability incubated for 24 hrs by CellTiter-LumiTM assay; format: functional, cell-based; conditions: 786-0, 24 h
786-0 [2] = assay: Inhibition of RSL3-induced ferroptosis in human 786-0 cells assessed as cell protection by assessing cell morphology at 1 uM incubated for 24 hrs; format: functional, cell-based
HT-1080 = assay: Anti-ferroptotic activity in human GPX4 knockout HT-1080 cells assessed as cell viability at 1 uM incubated for 24 hrs by CellTiter-LumiTM plus luminescent cell viability assay; format: functional, cell-based
SK-HEP1 [3] = assay: Inhibition of RSL3 induced lipid-ROS accumulation in human SK-HEP1 cells at 1 uM incubated for 0.5 hrs by C11-BODIPY 581/591 staining coupled with flow cytometry analysis; format: functional, cell-based
786-0 [4] = assay: Inhibition of RSL3 induced lipid-ROS accumulation in human 786-0 cells incubated for 2.5 hrs by C11-BODIPY 581/591 staining coupled with flow cytometry analysis; format: functional, cell-based; conditions: dose 0.1-1 µM
SK-HEP1 [5] = assay: Inhibition of RSL3 induced lipid-ROS accumulation in human SK-HEP1 cells at 1 uM incubated for 2.5 hrs by C11-BODIPY 581/591 staining coupled with flow cytometry analysis; format: functional, cell-based
786-0 [6] = assay: Inhibition of RSL3 induced lipid-ROS accumulation in human 786-0 cells assessed as fast elimination at 1 uM measured after 0.25 to 2.5 hrs by C11-BODIPY 581/591 staining coupled with flow cytometry analysis; format: functional, cell-based; conditions: time 0.25-2.5 hrs
786-0 [7] = assay: Inhibition of RSL3-induced ferroptosis in human 786-0 cells assessed as cell viability by assessing cell morphology incubated for 24 hrs by CellTiter-LumiTM plus luminescent cell viability assay; format: functional, cell-based; conditions: 786-0, 24 h
[8] = Antioxidant activity assessed as free radical scavenging activity at 50 uM incubated for 30 mins in dark by DPPH assay relative to control; format: functional
786-0 [9] = assay: Effect on TFRC expression in human 786-0 cells at 1 uM incubated for 2.5 hrs by Western blot analysis; format: functional, cell-based
786-0 [10] = assay: Inhibition of RSL3 induced ferroptosis in human 786-0 cells assessed as cell viability in presence of iFSP1 at 1 uM measured after 24 hrs by CellTiter-LumiTM assay; format: functional, cell-based
786-0 [11] = assay: Inhibition of STS induced apoptosis in human 786-0 cells assessed as cell viability at 1 uM incubated for 24 hrs by CellTiter-LumiTM assay; format: functional, cell-based
786-0 [12] = assay: Effect on IRP1 expression in human 786-0 cells at 1 uM incubated for 2.5 hrs by western blot analysis; format: functional, cell-based
[13] = Antioxidant activity assessed as free radical scavenging activity incubated for 30 mins in dark by DPPH assay relative to control; format: functional
[14] = Inhibition of RSL3 induced ferroptosis in human MHCC97H cells assessed as cell viability incubated for 24 hrs by CellTiter-LumiTM assay; format: functional, cell-based
[15] = Inhibition of erastin induced ferroptosis in human 786-0 cells assessed as cell viability incubated for 24 hrs by CellTiter-LumiTM assay; format: functional, cell-based; conditions: 786-0, 24 h
786-0 [16] = assay: Effect on FTH1 expression in human 786-0 cells at 1 uM incubated for 2.5 hrs by western blot analysis; format: functional, cell-based
786-0 [17] = assay: Effect on IRP1 expression in human 786-0 cells in presence of 0.25 uM RSL3 at 1 uM incubated for 2.5 hrs by Western blot analysis; format: functional, cell-based
786-0 [18] = assay: Inhibition of H2O2 induced necrosis in human 786-0 cells assessed as cell viability at 1 uM incubated for 24 hrs by CellTiter-LumiTM assay; format: functional, cell-based
[19] = Inhibition of RSL3 induced ferroptosis in human HT-1080 cells assessed as cell viability incubated for 24 hrs by CellTiter-LumiTM assay; format: functional, cell-based; conditions: HT-1080, 24 h
786-0 [20] = assay: Effect on FTH1 expression in human 786-0 cells in presence of 0.25 uM RSL3 at 1 uM incubated for 2.5 hrs by Western blot analysis; format: functional, cell-based
786-0 [21] = assay: Effect on ACSL4 expression in human 786-0 cells at 1 uM incubated for 2.5 hrs by Western blot analysis; format: functional, cell-based
786-0 [22] = assay: Metal chelating activity assessed as Fe2+ chelation in human 786-0 cells assessed as intracellular ferrous ion level at 1 uM by FerroOrange fluorescent probe based assay; format: cell-based
786-0 [23] = assay: Cytotoxicity against human 786-0 cells assessed as cell viability incubated for 24 hrs by CellTiter-LumiTM assay; format: functional
786-0 [24] = assay: Effect on GPX4 expression in human 786-0 cells at 1 uM incubated for 2.5 hrs by Western blot analysis; format: functional, cell-based
786-0 [25] = assay: Effect on erastin-induced decrease in GSH level in human 786-0 cells at 1 uM incubated for 10 hrs by Total intracellular GSH assay; format: functional, cell-based
786-0 [26] = assay: Effect on FTL expression in human 786-0 cells at 1 uM incubated for 2.5 hrs by western blot analysis; format: functional, cell-based
786-0 [27] = assay: Effect on TFRC expression in human 786-0 cells in presence of 0.25 uM RSL3 at 1 uM incubated for 2.5 hrs by Western blot analysis; format: functional, cell-based
[28] = Inhibition of RSL3 induced ferroptosis in human SK-HEP1 cells assessed as cell viability incubated for 24 hrs by CellTiter-LumiTM assay; format: functional, cell-based; conditions: SK-HEP1, 24 h
786-0 [29] = assay: Effect on FTL expression in human 786-0 cells in presence of 0.25 uM RSL3 at 1 uM incubated for 2.5 hrs by Western blot analysis; format: functional, cell-based
[30] = Suppression of autoxidation of liposomes egg ( unknown origin) phosphatidylcholine lipids as substrate at 0.1 to 2.5 uM incubated for 5 min by C11-BODIPY 581/591 dye based fluorescent assay; format: functional; conditions: dose 0.1-2.5 µM
786-0 [31] = assay: Effect on SLC7A11 expression in human 786-0 cells at 1 uM incubated for 2.5 hrs by Western blot analysis; format: functional, cell-based
[32] = Inhibition of RSL3 induced ferroptosis in H9c2 cells assessed as cell viability incubated for 24 hrs by CellTiter-LumiTM assay; format: functional, cell-based; conditions: Rattus norvegicus, H9c2, 24 h

EC50 (786-0 [1]): 150 nM
SMILES: COc1cccc(C2N(c3ccccc3)N=C(C(C)=O)N2c2ccc(N(C)C)cc2)c1OCc1ccc(C#N)cc1 (stereo not given)
Activity (786-0 [2]): Active

EC50 (786-0 [1]): 190 nM
SMILES: COc1cccc(C2N(c3ccccc3)N=C(C(C)=O)N2c2ccc(N(C)C)cc2)c1OCc1cccc2ccccc12 (stereo not given)
Activity (786-0 [2]): Active

EC50 (786-0 [1]): 260 nM
SMILES: COc1cccc(C2N(c3ccccc3)N=C(C(C)=O)N2c2ccc(N(C)C)cc2)c1OCc1ccc(Cl)cc1Cl (stereo not given)
Activity (786-0 [2]): Active

EC50 (786-0 [7]): 67 nM
SMILES: CCOC(=O)c1ccc(NC2CCCCC2)c(N)c1
Activity (HT-1080): Active
inhibition (SK-HEP1 [3]): Active
inhibition (786-0 [4]): Dose-dependent-effect
inhibition (SK-HEP1 [5]): Active
inhibition (786-0 [6]): Active
Activity [8]: Active

SMILES: Clc1cccc(CNC2=Nc3ccccc3NC23CCNCC3)c1
inhibition (SK-HEP1 [3]): Active
inhibition (SK-HEP1 [5]): Active
Activity [8]: Active

EC50 (786-0 [1]): 70 nM
EC50 (786-0 [7]): 91 nM
SMILES: COC(=O)c1ccc(COc2c(OC)cccc2C2N(c3ccccc3)N=C(C(C)=O)N2c2ccc(N(C)C)cc2)cc1 (stereo not given)
Activity (HT-1080): Active
inhibition (SK-HEP1 [3]): Active
Activity (786-0 [9]): inactive
inhibition (786-0 [4]): Dose-dependent-effect
inhibition (786-0 [10]): Active
inhibition (786-0 [11]): inactive
Activity (786-0 [12]): inactive
Activity [13]: Active
EC50 [14]: 635 nM
EC50 [15]: 52 nM
inhibition (SK-HEP1 [5]): Active
Activity (786-0 [16]): inactive
Activity (786-0 [17]): inactive
inhibition (786-0 [18]): inactive
inhibition (786-0 [6]): Active; Eliminated As Fast As Fer-1
EC50 [19]: 317 nM
Activity (786-0 [20]): inactive
Activity (786-0 [21]): inactive
Activity (786-0 [22]): inactive
CC50 (786-0 [23]): > 40000 nM
Activity (786-0 [24]): inactive
Activity (786-0 [25]): inactive
Activity (786-0 [2]): Active
Activity (786-0 [26]): inactive
Activity (786-0 [27]): inactive
EC50 [28]: 128 nM
Activity (786-0 [29]): inactive
Activity [30]: Dose-dependent-effect
Activity (786-0 [31]): inactive
EC50 [32]: 171 nM

SMILES: Cc1c(C)c2c(c(C)c1O)CCC(C)(C(=O)O)O2 (stereo not given)
Activity [30]: Dose-dependent-effect
Activity [8]: Active

EC50 (786-0 [1]): 120 nM
SMILES: COc1cccc(C2N(c3ccccc3)N=C(C(C)=O)N2c2ccc(N(C)C)cc2)c1OCc1cccc(Br)c1 (stereo not given)
Activity (786-0 [2]): Active

EC50 (786-0 [1]): 390 nM
SMILES: CC(=O)C1=NN(c2ccccc2)C(c2ccccc2OCc2ccc(Cl)cc2Cl)N1c1ccc(N(C)C)cc1 (stereo not given)
Activity (786-0 [2]): Active

EC50 (786-0 [1]): 360 nM
SMILES: COc1cccc(C2N(c3ccccc3)N=C(C(C)=O)N2c2ccc(N(C)C)cc2)c1OCc1c(C)cc(C)cc1C (stereo not given)

EC50 (786-0 [1]): 170 nM
SMILES: COc1cc(COc2c(OC)cccc2C2N(c3ccccc3)N=C(C(C)=O)N2c2ccc(N(C)C)cc2)cc(OC)c1OC (stereo not given)

EC50 (786-0 [1]): 150 nM
SMILES: CC(=O)C1=NN(c2ccccc2)C(c2cc(C)c(OCc3ccc(Cl)cc3Cl)c(C)c2)N1c1ccc(N(C)C)cc1 (stereo not given)

EC50 (786-0 [1]): 120 nM
SMILES: COc1cccc(C2N(c3ccccc3)N=C(C(C)=O)N2c2ccc(N(C)C)cc2)c1OCc1c(F)cccc1F (stereo not given)
Activity (786-0 [2]): Active

EC50 (786-0 [1]): 710 nM
SMILES: CC(=O)C1=NN(c2ccccc2)C(c2ccc(C)cc2OCc2ccc(Cl)cc2Cl)N1c1ccc(N(C)C)cc1 (stereo not given)
Activity (786-0 [2]): Active

EC50 (786-0 [1]): 100 nM
SMILES: COc1cccc(C2N(c3ccccc3)N=C(C(C)=O)N2c2ccc(N(C)C)cc2)c1OCc1ccc(Br)cc1 (stereo not given)
Activity (786-0 [2]): Active

EC50 (786-0 [1]): 120 nM
SMILES: COc1cccc(C2N(c3ccccc3)N=C(C(C)=O)N2c2ccc(N(C)C)cc2)c1OCc1ccc(Cl)cc1 (stereo not given)
Activity (786-0 [2]): Active

— ChEMBL document CHEMBL6120996, “Discovery and optimization of 1,2,4-triazole derivatives as novel ferroptosis inhibitors” (Eur J Med Chem, 2025)
